Data: the supplement of paper PMC10307832

compound: COc1cc(Nc2ncc(F)c(Nc3ccc4c(n3)NC(=O)C(C)(C)O4)n2)cc(OC)c1OC [R406] + CC(=O)Nc1cccc(-n2c(=O)n(C3CC3)c(=O)c3c(Nc4ccc(I)cc4F)n(C)c(=O)c(C)c32)c1 [Trametinib] (partner 0.02 µM); test: relative viability (nuclei count vs DMSO), 5 days (fraction); higher = more cells survive; conditions: first compound 0.08 µM
Outline: (§1)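 Dosing by pin tool came one day after lung cancer cell lines were seeded in 1536-well plates, using either one drug or a fixed anchor-drug dose plus five library-drug doses (not always all listed) in √10 steps. After 5 days, nuclei were counted on 4× images. Relative viability is treated-well nuclei count divided by vehicle-well nuclei count, and values are medians of duplicate plates.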

Cell Line	relative viability
NCI-H1993	0.442
NCI-H441	0.462
PC-14	0.777
LCLC-103H	0.66
NCI-H596	0.814
NCI-H2126	0.609
EMC-BAC-2	0.907
NCI-H2085	0.591
HCC-366	0.342
NCI-H1666	0.901
NCI-H647	0.534
NCI-H2087	0.227
H3255	0.549
COR-L23	0.627
COR-L 105	0.444
LOU-NH91	0.804
ChaGo-K-1	0.853
NCI-H2405	0.584
HOP-62	0.379
HCC-44	1.04
LU99A	0.532
BEN	0.974
HARA	0.745
HCC-78	0.757
NCI-H322M	0.515
LCLC-97TM1	0.218
NCI-H2009	0.275
A-427	0.755

same assay, conditions: first compound 0.253 µM

Cell Line	relative viability
NCI-H1993	0.542
NCI-H441	0.452
PC-14	0.898
LCLC-103H	0.675
NCI-H596	0.909
NCI-H2126	0.535
EMC-BAC-2	0.956
NCI-H2085	0.634
HCC-366	0.411
NCI-H1666	0.866
NCI-H647	0.359
NCI-H2087	0.218
H3255	0.693
COR-L23	0.669
COR-L 105	0.497
LOU-NH91	0.8
ChaGo-K-1	0.962
NCI-H2405	0.699
HOP-62	0.388
HCC-44	1.1
LU99A	0.522
BEN	0.992
HARA	0.629
HCC-78	0.687
NCI-H322M	0.532
LCLC-97TM1	0.23
NCI-H2009	0.275
A-427	0.745

same assay, conditions: first compound 0.8 µM

Cell Line	relative viability
NCI-H1993	0.518
NCI-H441	0.539
PC-14	0.857
LCLC-103H	0.672
NCI-H596	0.775
NCI-H2126	0.511
EMC-BAC-2	0.804
NCI-H2085	0.545
HCC-366	0.42
NCI-H1666	0.943
NCI-H647	0.6
NCI-H2087	0.197
H3255	0.563
COR-L23	0.682
COR-L 105	0.432
LOU-NH91	0.759
ChaGo-K-1	0.982
NCI-H2405	0.615
HOP-62	0.427
HCC-44	1.12
LU99A	0.56
BEN	1.24
HARA	0.878
HCC-78	0.749
NCI-H322M	0.452
LCLC-97TM1	0.226
NCI-H2009	0.323
A-427	0.857

same assay, conditions: first compound 2.53 µM

Cell Line	relative viability
NCI-H1993	0.679
NCI-H441	0.283
PC-14	0.628
LCLC-103H	0.691
NCI-H596	0.72
NCI-H2126	0.519
EMC-BAC-2	1.06
NCI-H2085	0.498
HCC-366	0.234
NCI-H1666	0.955
NCI-H647	0.239
NCI-H2087	0.194
H3255	0.577
COR-L23	0.217
COR-L 105	0.459
LOU-NH91	0.621
ChaGo-K-1	0.844
NCI-H2405	0.447
HOP-62	0.37
HCC-44	0.984
LU99A	0.458
BEN	1.17
HARA	0.794
HCC-78	0.504
NCI-H322M	0.475
LCLC-97TM1	0.174
NCI-H2009	0.213
A-427	0.62

same assay, conditions: first compound 8 µM

Cell Line	relative viability
NCI-H1993	0.573
NCI-H441	0.184
PC-14	0.11
LCLC-103H	0.604
NCI-H596	0.196
NCI-H2126	0.522
EMC-BAC-2	0.917
NCI-H2085	0.226
HCC-366	0.0517
NCI-H1666	0.679
NCI-H647	0.0884
NCI-H2087	0.156
H3255	0.487
COR-L23	0.338
COR-L 105	0.395
LOU-NH91	0.549
ChaGo-K-1	0.763
NCI-H2405	0.299
HOP-62	0.339
HCC-44	0.966
LU99A	0.358
BEN	0.897
HARA	0.13
HCC-78	0.424
NCI-H322M	0.421
LCLC-97TM1	0.194
NCI-H2009	0.136
A-427	0.541

compound: COc1cc(Nc2ncc(F)c(Nc3ccc4c(n3)NC(=O)C(C)(C)O4)n2)cc(OC)c1OC [R406] + Nc1ncn([C@H]2C[C@H](O)[C@@H](CO)O2)c(=O)n1 [Decitabine] (partner 2 µM); test: as above; conditions: first compound 0.08 µM
Outline: as §1

Cell Line	relative viability
NCI-H1993	0.623
NCI-H441	0.231
PC-14	0.301
LCLC-103H	0.707
NCI-H596	0.88
NCI-H2126	0.618
EMC-BAC-2	0.942
NCI-H2085	0.592
HCC-366	0.317
NCI-H1666	0.672
NCI-H647	0.39
NCI-H2087	0.24
H3255	0.656
COR-L23	0.397
COR-L 105	0.593
LOU-NH91	0.797
ChaGo-K-1	0.491
NCI-H2405	0.703
HOP-62	0.26
HCC-44	0.924
LU99A	0.972
BEN	0.679
HARA	0.414
HCC-78	0.566
NCI-H322M	0.665
LCLC-97TM1	0.259
NCI-H2009	0.371
A-427	0.583

same assay, conditions: first compound 0.253 µM

Cell Line	relative viability
NCI-H1993	0.634
NCI-H441	0.248
PC-14	0.237
LCLC-103H	0.712
NCI-H596	0.994
NCI-H2126	0.629
EMC-BAC-2	1.03
NCI-H2085	0.58
HCC-366	0.372
NCI-H1666	0.792
NCI-H647	0.462
NCI-H2087	0.264
H3255	0.589
COR-L23	0.447
COR-L 105	0.561
LOU-NH91	0.792
ChaGo-K-1	0.546
NCI-H2405	0.814
HOP-62	0.229
HCC-44	1.04
LU99A	0.87
BEN	0.793
HARA	0.597
HCC-78	0.785
NCI-H322M	0.669
LCLC-97TM1	0.27
NCI-H2009	0.42
A-427	0.626

same assay, conditions: first compound 0.8 µM

Cell Line	relative viability
NCI-H1993	0.599
NCI-H441	0.276
PC-14	0.25
LCLC-103H	0.744
NCI-H596	1.01
NCI-H2126	0.638
EMC-BAC-2	1.06
NCI-H2085	0.492
HCC-366	0.36
NCI-H1666	0.637
NCI-H647	0.406
NCI-H2087	0.301
H3255	0.714
COR-L23	0.512
COR-L 105	0.758
LOU-NH91	0.779
ChaGo-K-1	0.557
NCI-H2405	0.756
HOP-62	0.22
HCC-44	0.856
LU99A	0.888
BEN	0.726
HARA	0.586
HCC-78	0.702
NCI-H322M	0.704
LCLC-97TM1	0.247
NCI-H2009	0.383
A-427	0.717

same assay, conditions: first compound 2.53 µM

Cell Line	relative viability
NCI-H1993	0.537
NCI-H441	0.217
PC-14	0.0789
LCLC-103H	0.746
NCI-H596	0.91
NCI-H2126	0.545
EMC-BAC-2	0.974
NCI-H2085	0.544
HCC-366	0.344
NCI-H1666	0.936
NCI-H647	0.486
NCI-H2087	0.221
H3255	0.571
COR-L23	0.339
COR-L 105	0.563
LOU-NH91	0.644
ChaGo-K-1	0.504
NCI-H2405	0.615
HOP-62	0.221
HCC-44	1
LU99A	0.61
BEN	0.683
HARA	0.584
HCC-78	0.749
NCI-H322M	0.594
LCLC-97TM1	0.19
NCI-H2009	0.353
A-427	0.514

same assay, conditions: first compound 8 µM

Cell Line	relative viability
NCI-H1993	0.542
NCI-H441	0.24
PC-14	0.0868
LCLC-103H	0.707
NCI-H596	0.372
NCI-H2126	0.582
EMC-BAC-2	0.855
NCI-H2085	0.451
HCC-366	0.112
NCI-H1666	0.74
NCI-H647	0.207
